The values below are quoted from earlier work in US20160082019A1, “Drug Combinations to Treat Cancer” (EXELIXIS, INC., priority 2013, published 2016).

For the data set the following is noted: cabozantinib alone; in some cases normalized; independent of PSA declines.

As to `COc1cc2nccc(Oc3ccc(NC(=O)C4(C(=O)Nc5ccc(F)cc5)CC4)cc3)c2cc1OC` [Cabozantinib, N-(4-{[6,7-bis(methyloxy)quinolin-4-yl]oxy}phenyl)-N′-(4-fluorophenyl)cyclopropane-1,1-dicarboxamide], the “uptake on bone scans” value was “decrease uptake on bone scans”.
